For the first test, the system named is NCIH727 cells. Kind of test: Cancer cell line proliferation (CellTiter-Glo), NCI-H727. It counts as cell-based. Particulars: Homo sapiens, 72 h, NCIH727 lung carcinoid, heterozygous G12V. As to the method: Cell lines were cultured essentially according to ATCC recommendations.
SW620 and NCIH727 cells were plated in 384-well tissue culture plates at 1,000 cells/well and incubated at 37° C./5% CO2 for 72 hr in 40 μl of media. […] Each cell line was then treated with test compounds at various concentrations with a final concentration of 0.5% DMSO/well, and then incubated at 37° C./5% CO2 for 72 hr. 40 μl of CellTiter-Glo® Reagent (Promega Corporation, Madison, WI) was added to each well and processed according manufacturer's protocol. Results were analyzed and IC50 values were calculated in GraphPad 8.0 software.
Background: Cellular ATP, detected with luciferase, serves as a proxy for viable cell number.
T1 sequence (P01116 1-188 isoform P01116-2 G12V): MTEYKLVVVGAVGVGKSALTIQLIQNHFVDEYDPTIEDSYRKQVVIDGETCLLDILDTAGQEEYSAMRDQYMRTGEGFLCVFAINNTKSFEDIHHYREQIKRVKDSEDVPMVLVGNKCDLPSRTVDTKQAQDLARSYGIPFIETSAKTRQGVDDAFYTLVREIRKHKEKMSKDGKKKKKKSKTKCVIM
As a reminder, the EC50 is the concentration giving half of the maximal effect. Low readings indicate higher potency in that assay, high ones lower potency in that assay. Take `[2H]C([2H])([2H])Oc1nc(-c2cc(O)cc3ccc(F)c(C#C)c23)c(F)c2nc(OCC3(CN4CC5CC5C4)CC3)nc(N3CC4CCC(C3)N4C(=O)C(C)C#N)c12` (stereo not shown) [Example 118]: the EC50 lay in the range of 100 to 1000 nM.
In turn, `C#Cc1c(F)ccc2cc(O)cc(-c3nc(OC)c4c(N5CC6CCC(C5)N6C)nc(OCC5(CN6CC7CC7C6)CC5)nc4c3F)c12` (stereo not shown) [Example 137] had an EC50 of over 1000 nM.
As to `C#Cc1c(F)ccc2cc(O)cc(-c3nc(OC)c4c(N5CC6CCC(C5)N6C(=O)C56CC(F)(C5)C6)nc(OCC5(CN6CC7CC7C6)CC5)nc4c3F)c12` (stereo not shown) [Example 185], the EC50 fell in the range of 100 to 1000 nM.
The same measure, in the same setting: with `C#Cc1c(F)ccc2cc(O)cc(-c3nc(OC)c4c(N5CC6CCC(C5)N6C(=O)CC(C)(O)C(F)(F)F)nc(OCC5(CN6CC7CC7C6)CC5)nc4c3F)c12` (stereo not shown) [Example 193] the figure was 100 to 1000 nM.
`C#Cc1c(F)ccc2cc(N)cc(-c3nc(OC)c4c(N5CC6CCC(C5)N6C(=S)NC(C)C#N)nc(OCC5(CN6CC7CC7C6)CC5)nc4c3F)c12` (stereo not shown) [Example 166] showed a half-maximal effective concentration (EC50) of over 1000 nM.
Same read-out and setting: with `C#Cc1c(F)ccc2cc(O)cc(-c3nc(OC)c4c(N5CC6CCC(C5)N6C(=O)C(CC#N)CC#N)nc(OCC5(CN6CC7CC7C6)CC5)nc4c3F)c12` (stereo not shown) [Example 131] the figure was 100 to 1000 nM; with `C#CCNC(=O)N1C2CCC1CN(c1nc(OCC3(CN4CCC(F)CC4)CC3)nc3c(F)c(-c4cc(O)cc5ccc(F)c(C#C)c45)nc(C#C)c13)C2` [Example 96], 100 to 1000 nM.
The same measure, in the same setting: with `C#Cc1c(F)ccc2cc(O)cc(-c3nc(OC)c4c(N5CC6CCC(C5)N6C(=O)N[C@H]5C[C@H]5F)nc(OCC5(CN6CCC(F)CC6)CC5)nc4c3F)c12` [Example 68] the figure was over 1000 nM.
Same read-out and setting: with `C#Cc1c(F)ccc2cc(O)cc(-c3nc(OC)c4c(N5CC6CCC(C5)N6C(=O)CCNC)nc(OCC5(CN6CC7CC7C6)CC5)nc4c3F)c12` (stereo not shown) [Example 157] the figure was over 1000 nM; with `C#Cc1c(F)ccc2cc(O)cc(-c3nc(OC)c4c(N5CC6CCC(C5)N6C(=O)NC5(C#N)COC5)nc(OCC5(CN6CC7CC7C6)CC5)nc4c3F)c12` (stereo not shown) [Example 196], 100 to 1000 nM; with `C#Cc1c(F)ccc2cc(OC(=O)C(C)C)cc(-c3nc(OC)c4c(N5CC6CCC(C5)N6C(=O)C(C#N)CC#N)nc(OCC5(CN6CC7CC7C6)CC5)nc4c3F)c12` (stereo not shown) [Example 179], 100 to 1000 nM.
`C#Cc1c(F)ccc2cc(O)cc(-c3nc(C#C)c4c(N5CC6CCC(C5)N6C(=O)NC(C)(C)C)nc(OCC5(CN6CCC(F)CC6)CC5)nc4c3F)c12` [Example 74] returned an EC50 of 100 to 1000 nM.
In the case of `C#Cc1c(F)ccc2cc(O)cc(-c3nc(OC)c4c(N5CC6CCC(C5)N6C(=O)C[C@@H](C)C#N)nc(OCC5(CN6CC7CC7C6)CC5)nc4c3F)c12` (stereo partly shown) [Example 177], the EC50 was under 100 nM.
Same read-out and setting: with `C#Cc1c(F)ccc2cc(O)cc(-c3nc(OC)c4c(N5CC6CCC(C5)N6C(=O)Nc5cc(F)cc(F)c5)nc(OCC5(CN6CCC(F)CC6)CC5)nc4c3F)c12` [Example 90] the figure was 100 to 1000 nM; with `C#Cc1c(F)ccc2cc(O)cc(-c3nc(OC)c4c(N5CC6CCC(C5)N6C(=O)NCC(F)(F)F)nc(OCC5(CN6CCC(C#N)CC6)CC5)nc4c3F)c12` [Example 133], under 100 nM; with `C#Cc1c(F)ccc2cc(O)cc(-c3nc(OC)c4c(N5CC6CCC(C5)N6C(=O)NC5(C#N)CCC5)nc(OCC5(CN6CC7CC7C6)CC5)nc4c3F)c12` (stereo not shown) [Example 197], under 100 nM.
Still for that read-out and setting: with `O=CO.[2H]C([2H])([2H])Oc1nc(-c2cc(O)cc3ccc(F)c(C#C)c23)c(F)c2nc(OCC3(CN4CC5CC5C4)CC3)nc(N3CC4CCC(C3)N4C(=O)C(C#N)CC#N)c12` (stereo not shown) [Example 127] the figure was 100 to 1000 nM; with `C#Cc1c(F)ccc2cc(O)cc(-c3nc(OC)c4c(N5CC6CCC(C5)N6C(=O)N[C@@H]5CCC(F)(F)C5)nc(OCC5(CN6CCC(F)CC6)CC5)nc4c3F)c12` [Example 82], 100 to 1000 nM; with `C#Cc1c(F)ccc2cc(O)cc(-c3nc(OC)c4c(N5CC6CCC(C5)N6C(=O)NNC)nc(OCC5(CN6CC7CC7C6)CC5)nc4c3F)c12` (stereo not shown) [Example 182], 100 to 1000 nM.
With `C#Cc1c(F)ccc2cc(O)cc(-c3nc(OC)c4c(N5CC6CCC(C5)N6C(=O)[C@H]5CC5(F)F)nc(OCC5(CN6CCC(F)CC6)CC5)nc4c3F)c12` [Example 69], the 50% effective concentration (EC50) was under 100 nM.
Molecule `C#Cc1c(F)ccc2cc(O)cc(-c3nc(OC)c4c(N5CC6CCC(C5)N6C(=O)NC5CN(C)C5)nc(OCC5(CN6CC7CC7C6)CC5)nc4c3F)c12` (stereo not shown) [Example 158] registered a half-maximal effective concentration (EC50) of over 1000 nM.
`C#Cc1c(F)ccc2cc(O)cc(-c3nc(OC)c4c(N5CC6CCC(C5)N6C(=O)C[C@H](C)C#N)nc(OCC5(CN6CC7CC7C6)CC5)nc4c3F)c12` (single isomer, unassigned) [Example 178] registered an EC50 of 100 to 1000 nM.
In the case of `C#Cc1c(F)ccc2cc(O)cc(-c3nc(OC)c4c(N5CC6CCC(C5)N6C(=O)OCC#N)nc(OCC5(CN6CC7CC7C6)CC5)nc4c3F)c12` (stereo not shown) [Example 161], the half-maximal effective concentration (EC50) is under 100 nM.
Same read-out and setting: with `C#Cc1c(F)ccc2cc(O)cc(-c3nc(OC)c4c(N5CC6CCC(C5)N6C(=O)C(C)CC#N)nc(OCC5(CN6CC7CC7C6)CC5)nc4c3F)c12` (stereo not shown) [Example 141] the figure was 100 to 1000 nM.
Same read-out and setting: with `C#Cc1c(F)ccc2cc(O)cc(-c3nc(OC)c4c(N5CC6CCC(C5)N6C(=O)C5CC(F)(C(C)C)C5)nc(OCC5(CN6CC7CC7C6)CC5)nc4c3F)c12` (stereo not shown) [Example 150] the figure was 100 to 1000 nM.
`C#Cc1c(F)ccc2cc(O)cc(-c3nc(OC)c4c(N5CC6CCC(C5)N6C(=O)N[C@H]5C[C@@H](C#N)C5)nc(OCC5(CN6CC7CC7C6)CC5)nc4c3F)c12` (stereo partly shown) [Example 190] gave an EC50 of 100 to 1000 nM.
Same read-out and setting: with `C#Cc1c(F)ccc2cc(O)cc(-c3nc(OC)c4c(N5CC6CCC(C5)N6C(=O)C5CN(C)C5)nc(OCC5(CN6CC7CC7C6)CC5)nc4c3F)c12` (stereo not shown) [Example 151] the figure was over 1000 nM.
On the same count and under the same terms, with `C#Cc1c(F)ccc2cc(O)cc(-c3nc(OC)c4c(N5CC6CCC(C5)N6C(=O)COC)nc(OCC5(CN6CC7CC7C6)CC5)nc4c3F)c12` (stereo not shown) [Example 106] the figure was 100 to 1000 nM; with `C#CCC(C#N)C(=O)N1C2CCC1CN(c1nc(OCC3(CN4CC5CC5C4)CC3)nc3c(F)c(-c4cc(O)cc5ccc(F)c(C#C)c45)nc(OC)c13)C2` (stereo not shown) [Example 146], 100 to 1000 nM; with `C#Cc1c(F)ccc2cc(O)cc(-c3nc(C#C)c4c(N5CC6CCC(C5)N6C(=O)C5CC5(F)F)nc(OCC5(CN6CCC(F)CC6)CC5)nc4c3F)c12` (stereo not shown) [Example 94], 100 to 1000 nM.
Molecule `C#Cc1c(F)ccc2cc(O)cc(-c3nc(OC)c4c(N5CC6CCC(C5)N6C(=O)NC(C#N)C(N)=O)nc(OCC5(CN6CC7CC7C6)CC5)nc4c3F)c12` (stereo not shown) [Example 189] had an EC50 of over 1000 nM.
The molecule `C#Cc1c(F)ccc2cc(O)cc(-c3nc(OC)c4c(N5CC6CCC(C5)N6C(=O)C(C#N)C(C)(C)C)nc(OCC5(CN6CC7CC7C6)CC5)nc4c3F)c12` (stereo not shown) [Example 112] gave an EC50 of over 1000 nM.
Molecule `C#Cc1c(F)ccc2cc(O)cc(-c3nc(OC)c4c(N5CC6CCC(C5)N6C(=O)N[C@H]5CCC(F)(F)C5)nc(OCC5(CN6CCC(F)CC6)CC5)nc4c3F)c12` [Example 81] returned an EC50 of under 100 nM.
Still for that read-out and setting: with `C#Cc1c(F)ccc2cc(O)cc(-c3nc(OC)c4c(N5CC6CCC(C5)N6C(=O)C5(F)CC5)nc(OCC5(CN6CCC(F)CC6)CC5)nc4c3F)c12` [Example 66] the figure was 100 to 1000 nM; with `C#Cc1c(F)ccc2cc(O)cc(-c3nc(OC)c4c(N5CC6CCC(C5)N6C(=O)NC5CC5(F)F)nc(OCC5(CN6CCC(F)CC6)CC5)nc4c3F)c12` (stereo not shown) [Example 86], 100 to 1000 nM; with `C#Cc1c(F)ccc2cc(O)cc(-c3nc(OC)c4c(N5CC6CCC(C5)N6C(=O)CCC=O)nc(OCC5(CN6CC7CC7C6)CC5)nc4c3F)c12` (stereo not shown) [Example 132], 100 to 1000 nM.

Another test concerns the target T1, KRAS(G12V)/SOS1 (Homo sapiens, UniProt P01116, G12V).
T1 construct: purchased Cisbio 63ADK000CB18PEH
Kind of test: KRAS(G12V)/SOS1 homogeneous time-resolved fluorescence (HTRF) assay. It counts as binding. Particulars: absence of GTP; 4° C., 3 hours; read-out: HTRF of KRASG12V-SOS1. As to the method:
Binding of test compounds to KRAS(G12V) target protein, which in turn blocks KRAS(G12V) interaction with the SOS1 protein, was measured in the absences of GTP by homogeneous time-resolved fluorescence using the KRAS-G12V/SOS1 Binding Assay Kit (Cisbio, 63ADK000CB18PEH), following the manufacturer's instructions, except as noted. 3-fold serial dilutions of each test compound were prepared ranging from 20 µM to 1.02 nM. The test compound was mixed and incubated with reaction components, incubated in a sealed plate at 4° C. for 3 hours and fluorescence was measured using a PerkinElmer Envision plate reader. The KRAS(G12V)-SOS1 IC50 values (the concentration of 50% of the maximal inhibition) were calculated using GraphPad Prism 8.0 software.
On the technique in general: In TR-FRET formats the signal depends on donor and acceptor labels being close together.
`C#Cc1c(F)ccc2cc(O)cc(-c3ncc4c(N5CC6CCC(C5)N6)nc(OCC5(CN6CCC(F)CC6)CC5)nc4c3F)c12` [Example 1, 4-(4-(3,8-diazabicyclo[3.2.1]octan-3-yl)-8-fluoro-2-((1-((4-fluoropiperidin-1-yl)methyl)cyclopropyl)methoxy)pyrido[4,3-d]pyrimidin-7-yl)-5-ethynyl-6-fluoronaphthalen-2-ol]: the IC50 is 100 to 1000 nM.
Turning to `C#Cc1c(F)ccc2cc(O)cc(-c3nc(OC)c4c(N5CC6CCC(C5)N6C(=O)CC(F)(F)F)nc(OCC5(CN6CCC(F)CC6)CC5)nc4c3F)c12` [Example 20], the IC50 was under 100 nM.
Still for that read-out and setting: with `[2H]C([2H])([2H])Oc1nc(-c2cc(O)cc3ccc(F)c(C#C)c23)c(F)c2nc(OCC3(CN4CC5CC5C4)CC3)nc(N3CC4CCC(C3)N4C(=O)C(C)C#N)c12` (stereo not shown) [Example 118] the figure was under 100 nM; with `C#Cc1c(F)ccc2cc(O)cc(-c3ncc4c(N5CC6CCC(C5)N6C(=O)NCC(C)(C)O)nc(OCC5(CN6CCC(F)CC6)CC5)nc4c3F)c12` [Example 53], under 100 nM.
As to `C#Cc1c(F)ccc2cc(O)cc(-c3nc(OC)c4c(N5CC6CCC(C5)N6C(=O)NC5CCCC5)nc(OCC5(CN6CCC(F)CC6)CC5)nc4c3F)c12` [Example 55], the IC50 is under 100 nM.
Take `C#Cc1c(F)ccc2cc(O)cc(-c3ncc4c(N5CC6CCC(C5)N6S(=O)(=O)NCCN(C)C)nc(OCC5(CN6CCC(F)CC6)CC5)nc4c3F)c12` [Example 56]: the IC50 was under 100 nM.
`C#CCC(=O)N1C2CCC1CN(c1nc(OCC3(CN4CCC(F)CC4)CC3)nc3c(F)c(-c4cc(O)cc5ccc(F)c(C#C)c45)ncc13)C2` [Example 54]: the IC50 is under 100 nM.

The values above are taken from US20260200946A1, “KRAS(G12V) INHIBITORS” (Ranok Therapeutics (Hangzhou) Co. Ltd., priority 2022, published 2026).
